Test results: PubChem BioAssay AID1963979 (Molecular Pharmacology Branch, DTP, NCI, 2024)

Tested on: 361931-004-R-J1-PDC multicell spheroid viability
Assay: Anticancer human tumor 361931-004-R-J1-PDC patient-derived colon adenocarcinoma cell line growth inhibition [PI3K]
Details: for IC50: curve of first compound; for viability, T/C: stronger effect = lower value
Summary of the method: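 Combination activity was assessed by viability in multicellular tumor spheroids carrying HUVEC and MSC components. Agents were tested with PI3K inhibitors from a Cmax-based top dose (or 10 microM) downward in half-log increments.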

[1] = second compound 0.00316 µM, first compound 0.00316 µM
[2] = second compound 0.00316 µM, first compound 0.01 µM
[3] = second compound 0.00316 µM, first compound 0.0316 µM
[4] = second compound 0.00316 µM, first compound 0.1 µM
[5] = second compound 0.00316 µM, first compound 0.316 µM
[6] = second compound 0.00316 µM, first compound 1 µM
[7] = second compound 0.01 µM, first compound 0.00316 µM
[8] = second compound 0.01 µM, first compound 0.01 µM
[9] = second compound 0.01 µM, first compound 0.0316 µM
[10] = second compound 0.01 µM, first compound 0.1 µM
[11] = second compound 0.01 µM, first compound 0.316 µM
[12] = second compound 0.01 µM, first compound 1 µM
[13] = second compound 0.0316 µM, first compound 0.00316 µM
[14] = second compound 0.0316 µM, first compound 0.01 µM
[15] = second compound 0.0316 µM, first compound 0.0316 µM
[16] = second compound 0.0316 µM, first compound 0.1 µM
[17] = second compound 0.0316 µM, first compound 0.316 µM
[18] = second compound 0.0316 µM, first compound 1 µM
[19] = second compound 0.1 µM, first compound 0.00316 µM
[20] = second compound 0.1 µM, first compound 0.01 µM
[21] = second compound 0.1 µM, first compound 0.0316 µM
[22] = second compound 0.1 µM, first compound 0.1 µM
[23] = second compound 0.1 µM, first compound 0.316 µM
[24] = second compound 0.1 µM, first compound 1 µM
[25] = second compound 0.316 µM, first compound 0.00316 µM
[26] = second compound 0.316 µM, first compound 0.01 µM
[27] = second compound 0.316 µM, first compound 0.0316 µM
[28] = second compound 0.316 µM, first compound 0.1 µM
[29] = second compound 0.316 µM, first compound 0.316 µM
[30] = second compound 0.316 µM, first compound 1 µM
[31] = second compound 1 µM, first compound 0.00316 µM
[32] = second compound 1 µM, first compound 0.01 µM
[33] = second compound 1 µM, first compound 0.0316 µM
[34] = second compound 1 µM, first compound 0.1 µM
[35] = second compound 1 µM, first compound 0.316 µM
[36] = second compound 1 µM, first compound 1 µM
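Also: spheroids exposed to agents for seven days before readout.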

SMILES: CCN1CCN(Cc2ccc(Nc3ncc(F)c(-c4cc(F)c5nc(C)n(C(C)C)c5c4)n3)nc2)CC1 + COc1c(OCCCN2CCOCC2)ccc2c3n(c(=NC(=O)c4cnc(N)nc4)nc12)CCN3
- IC50 (second compound 0.00316 µM): > 1 µM
- IC50 (second compound 0.01 µM): > 1 µM
- IC50 (second compound 0.0316 µM): 0.864 µM
- IC50 (second compound 0.1 µM): 0.223 µM
- IC50 (second compound 0.316 µM): < 0.00316 µM
- IC50 (second compound 1 µM): < 0.00316 µM
- viability, T/C [1]: 92.3%
- viability, T/C [2]: 101%
- viability, T/C [3]: 103%
- viability, T/C [4]: 103%
- viability, T/C [5]: 94.6%
- viability, T/C [6]: 87.6%
- viability, T/C [7]: 100%
- viability, T/C [8]: 95.1%
- viability, T/C [9]: 94.4%
- viability, T/C [10]: 85%
- viability, T/C [11]: 77.2%
- viability, T/C [12]: 64.5%
- viability, T/C [13]: 86.7%
- viability, T/C [14]: 91.3%
- viability, T/C [15]: 80.7%
- viability, T/C [16]: 73.5%
- viability, T/C [17]: 62.3%
- viability, T/C [18]: 48.1%
- viability, T/C [19]: 80.8%
- viability, T/C [20]: 74.3%
- viability, T/C [21]: 60.3%
- viability, T/C [22]: 54.3%
- viability, T/C [23]: 51.2%
- viability, T/C [24]: 39.9%
- viability, T/C [25]: 50%
- viability, T/C [26]: 44.7%
- viability, T/C [27]: 43.2%
- viability, T/C [28]: 39.7%
- viability, T/C [29]: 39%
- viability, T/C [30]: 39.9%
- viability, T/C [31]: 22.7%
- viability, T/C [32]: 21.8%
- viability, T/C [33]: 18.7%
- viability, T/C [34]: 22.2%
- viability, T/C [35]: 30.3%
- viability, T/C [36]: 32.1%

SMILES: CC(C)NCC(C(=O)N1CCN(c2ncnc3c2C(C)CC3O)CC1)c1ccc(Cl)cc1 (stereo unspecified)
- viability, T/C (compound 0.0316 µM): 97.8% [middle of 4 runs]
- viability, T/C (compound 0.1 µM): 99.3% [middle of 4 runs]
- viability, T/C (compound 0.316 µM): 94.3% [middle of 4 runs]
- viability, T/C (compound 3.16 µM): 48.7% [middle of 4 runs]
- viability, T/C (compound 10 µM): 31.1% [middle of 4 runs]

SMILES: CCN1CCN(Cc2ccc(Nc3ncc(F)c(-c4cc(F)c5nc(C)n(C(C)C)c5c4)n3)nc2)CC1 + CC(Nc1ccc2c(c1)OCCn1cc(N3C(=O)OCC3C(F)F)nc1-2)C(N)=O
- IC50 (second compound 0.00316 µM): > 1 µM
- IC50 (second compound 0.01 µM): > 1 µM
- IC50 (second compound 0.0316 µM): > 1 µM
- IC50 (second compound 0.1 µM): 0.504 µM
- IC50 (second compound 0.316 µM): 0.142 µM
- IC50 (second compound 1 µM): 0.146 µM
- viability, T/C [1]: 96.2%
- viability, T/C [2]: 100%
- viability, T/C [3]: 91.2%
- viability, T/C [4]: 86.9%
- viability, T/C [5]: 86.2%
- viability, T/C [6]: 64.3%
- viability, T/C [7]: 104%
- viability, T/C [8]: 99.1%
- viability, T/C [9]: 77.5%
- viability, T/C [10]: 81.4%
- viability, T/C [11]: 86.1%
- viability, T/C [12]: 56.7%
- viability, T/C [13]: 91.4%
- viability, T/C [14]: 98.2%
- viability, T/C [15]: 76.2%
- viability, T/C [16]: 80%
- viability, T/C [17]: 68%
- viability, T/C [18]: 55.4%
- viability, T/C [19]: 90%
- viability, T/C [20]: 87.6%
- viability, T/C [21]: 71.7%
- viability, T/C [22]: 63.4%
- viability, T/C [23]: 67.2%
- viability, T/C [24]: 36.4%
- viability, T/C [25]: 75.7%
- viability, T/C [26]: 86.4%
- viability, T/C [27]: 62.8%
- viability, T/C [28]: 55%
- viability, T/C [29]: 42.5%
- viability, T/C [30]: 33.1%
- viability, T/C [31]: 75.4%
- viability, T/C [32]: 75.1%
- viability, T/C [33]: 54.4%
- viability, T/C [34]: 56.1%
- viability, T/C [35]: 45%
- viability, T/C [36]: 32.2%

SMILES: CNC(=O)c1ccc(N2C(=S)N(c3ccc(C#N)c(C(F)(F)F)c3)C(=O)C2(C)C)cc1F + CC(Nc1ccc2c(c1)OCCn1cc(N3C(=O)OCC3C(F)F)nc1-2)C(N)=O
- IC50 (second compound 0.00316 µM): > 10 µM
- IC50 (second compound 0.01 µM): > 10 µM
- IC50 (second compound 0.0316 µM): > 10 µM
- IC50 (second compound 0.1 µM): > 10 µM
- IC50 (second compound 0.316 µM): > 10 µM
- IC50 (second compound 1 µM): > 10 µM
- viability, T/C [3]: 110%
- viability, T/C [4]: 101%
- viability, T/C [5]: 101%
- viability, T/C [6]: 92.8%
- viability, T/C (second compound 0.00316 µM, first compound 3.16 µM): 110%
- viability, T/C (second compound 0.00316 µM, first compound 10 µM): 93.7%
- viability, T/C [9]: 109%
- viability, T/C [10]: 102%
- viability, T/C [11]: 85.2%
- viability, T/C [12]: 104%
- viability, T/C (second compound 0.01 µM, first compound 3.16 µM): 103%
- viability, T/C (second compound 0.01 µM, first compound 10 µM): 90.4%
- viability, T/C [15]: 107%
- viability, T/C [16]: 103%
- viability, T/C [17]: 105%
- viability, T/C [18]: 102%
- viability, T/C (second compound 0.0316 µM, first compound 3.16 µM): 105%
- viability, T/C (second compound 0.0316 µM, first compound 10 µM): 82.4%
- viability, T/C [21]: 94.6%
- viability, T/C [22]: 99.1%
- viability, T/C [23]: 93.1%
- viability, T/C [24]: 100%
- viability, T/C (second compound 0.1 µM, first compound 3.16 µM): 97.4%
- viability, T/C (second compound 0.1 µM, first compound 10 µM): 86.4%
- viability, T/C [27]: 88.1%
- viability, T/C [28]: 94%
- viability, T/C [29]: 88.6%
- viability, T/C [30]: 87.9%
- viability, T/C (second compound 0.316 µM, first compound 3.16 µM): 87.5%
- viability, T/C (second compound 0.316 µM, first compound 10 µM): 76%
- viability, T/C [33]: 75.9%
- viability, T/C [34]: 82.1%
- viability, T/C [35]: 79.3%
- viability, T/C [36]: 78%
- viability, T/C (second compound 1 µM, first compound 3.16 µM): 76.1%
- viability, T/C (second compound 1 µM, first compound 10 µM): 79.6%
